Measurements from patent US20060154919A1, “Combination of a glycine transporter (GLYT1) inhibitor and an antipsychotic for the treatment of symptoms of schizophrenia as well as its preparation and use thereof” (priority 2004, published 2006).
“Also recorded” adds a separate entry of the source.

How the values were obtained:
[1] = tested on: extracellular dopamine in the striatum; test: Microdialysis: extracellular dopamine in the rat striatum; type: in vivo; settings: for dose-response of extracellular dopamine: ascending doses (COMPOUND NO. 1 0.63, 2.5, 10 mg/kg; risperidone 0.16, 0.63, 2.5 mg/kg)
Description: (§1) Compounds (as a Na salt) were stored, dissolved, and administered according to detailed instructions accompanying each compound. Compounds were dissolved in a solvent consisting of 10% BCD (beta cyclodextrin) and administered subcutaneously.
(§2) Male Sprague Dawley rats weighing 275-325 g at the start of the experiment were individually housed in a temperature-controlled colony room with a 12-h light/dark cycle. Food and water was available ad libitum throughout the experiment. The housing conditions and care of the animals were in accordance with the “Guide for the Care and Use of Laboratory Animals” (Institute of Laboratory Animal Resources on Life Sciences, National Research Council, 1996).
(§3) Guide cannula were stored in 95% ETOH prior to surgery, whereas surgical tools underwent heat sterilization (250 °C) immediately before each surgery. Rats were anesthetized using a ketamine hydrochloride (100 mg/kg, IP) xylazine (12 mg/kg) mixture. After adequate anesthesia had been determined (using toe and tail pinch procedures), rats were placed into a stereotaxic instrument. The skull region was wiped with a 2% Betadine solution and a rostrocaudal incision was made to expose the surface of the skull. Bilateral guide cannula (20 gauge; Plastics One) were chronically implanted over the medial striatum (A/P: +0.5, M/L: ±2.5, D/V: −2.0; Paxinos & Watson, 1998) and secured using four skull screws and cranioplastic cement. The cannula need to be implanted at an angle to obtain the minimum inter-cannula distance needed for our probe leash used during microdialysis sampling. Following surgery, body temperature was maintained using a heating pad and the rats were monitored until fully conscious. Rats were then individually housed and assessed daily by monitoring general activity, body weight, and feces. Rats were monitored for signs of an infection and cefazolin (100 mg/kg; intramuscular) was available as needed. Notation was made of any animal administered antibiotic.
(§4) Rats were given at least five days to recover prior to microdialysis sampling. Approximately 18 hr prior to sampling, a microdialysis probe (24 gauge; 2-3 mm exposed membrane; 13000 MWCO) encased in a spring leash and attached to a liquid swivel connected to a balancing arm was inserted into the guide cannula of an awake rat. The probe was secured in place by screwing a threaded portion of the probe leash onto the guide cannula. The rat was then placed into a behavioral chamber (Omnitech, Columbus Ohio) equipped with a fan and house light (10W), and food and water was available ad libitum. On the day of the experiment, dialysis buffer consisting of 5 mM glucose, 140 mM NaCl, 1.4 mM CaCl2, 1.2 mM MgCl2, and 0.15% phosphate buffer saline, pH 7.4, was perfused through the probe (2.0 μl/min) at least two hr prior to sample collection. Twenty-min dialysis samples were then collected for two hr to determine basal glycine levels. Rats were then injected (intraperitoneal) with vehicle or one dose of the test compound, and 30-min samples were collected for up to 10 hr. Samples were split for separate chromatographic evaluation of glycine and dopamine, and frozen (−80 °C) until analyzed.
(§5) Rats, with the dialysis probes in place, were given an overdose of pentobarbital, and the brains fixed by intracardiac infusion of PBS-formalin. Coronal brain sections were 100 μM thick and stained with cresyl violet to verify probe placements. Probes were left in place as the animal was perfused in order to check for the presence of blood in the probe tract.
For dopamine analysis, samples were placed in an ESA (Chelmsford, Mass.) Model 540 autosampler connected to an HPLC system with electrochemical detection. Separation was achieved by pumping the samples through a 15 cm C18 reversed phase column (ESA, Inc.) and then samples were reduced/oxidized using coulometric detection.

[2] = tested on: extracellular glycine in the striatum; test: Microdialysis: extracellular glycine in the rat striatum; type: in vivo; settings: for dose-response of extracellular glycine: ascending doses (COMPOUND NO. 1 0.63, 2.5, 10 mg/kg; risperidone 0.16, 0.63, 2.5 mg/kg)
Description: as §1, §2, §3, §4, §5
The concentrations of glycine and dopamine in dialysate samples was determined using a Waters Alliance 2690 HPLC system with fluorometeric detection or an ESA coulometric electrochemical detection HPLC system, respectively. Dialyis samples were split between the two systems enabling both dopamine and glycine to be measured in each sample. A Waters Spherisorb ODS2 column (5 μM, 4.6×250 mm) was used to separate the amino acids.

[3] = COMPOUND NO. 1 alone, 10 mg/kg (highest dose), 10 mg/kg
[4] = risperidone alone, 0.16 mg/kg (lowest dose)

Row | SMILES | reduction in extracellular dopamine ([1]; COMPOUND NO. 1 alone, 0.63 mg/kg (lowest dose)) | effect on extracellular dopamine ([1]; COMPOUND NO. 1 alone, 0.63 mg/kg (lowest dose), 0.63 mg/kg) | effect on extracellular dopamine ([1]; COMPOUND NO. 1 alone, 2.5 mg/kg) | effect on extracellular dopamine [1, 3] | dose-response of extracellular dopamine [1] | increase in extracellular glycine [2, 3] | dose-response of extracellular glycine [2] | threshold dose for elevation in extracellular dopamine ([1]; risperidone alone) | elevation in extracellular dopamine [1, 4] | expected increase in extracellular dopamine ([1]; risperidone alone, 1.0 mg/kg, expected from FIGS. 1C-1D) | increase in extracellular dopamine ([1]; risperidone alone, two higher doses (0.63 and 2.5 mg/kg)) | threshold dose for elevation in extracellular glycine ([2]; risperidone alone) | effect on extracellular glycine [2, 4] | increase in extracellular glycine ([2]; risperidone alone, 2.5 mg/kg (highest dose)) | effect on extracellular glycine ([2]; risperidone alone, at the dose examined in the combination (1.0 mg/kg))
1 | CN(C/C=C(/C#Cc1ccc(-c2ccoc2)cc1)c1ccccc1)CC(=O)O [COMPOUND NO. 1] | ~50% | significant reduction; also recorded: reduced extracellular dopamine | normalized; also recorded: returned to normal | remained unaltered; also recorded: without effect | biphasic | 2.5 fold | dose-dependent increase; also recorded: dose-dependent elevation |  |  |  |  |  |  |  | 
2 | Cc1nc2n(c(=O)c1CCN1CCC(c3noc4cc(F)ccc34)CC1)CCCC2 [risperidone, 3-[2-[4-(6-fluoro-1,2-benzisoxazol-3-yl)piperidino]ethyl]-2-methyl-6,7,8,9-tetrahydro-4H-pyrido-[1,2-a]pyrimidin-4-one, reference compound] |  |  |  |  | dose-dependent elevation |  | dose-dependent elevation | 0.16 mg/kg | approximately 50% | 300% | 3-4 fold | 0.16 mg/kg | without effect | 2.5 fold | modest rise
